Assay results as given in patent publication US20240158430A1, “NOVEL COMPOUND OR SALT THEREOF, AND ANTITUMOR ACTIVATOR CONTAINING SAME AS ACTIVE INGREDIENT” (AKITA UNIVERSITY, priority 2021, published 2024).
Like-named read-outs stand apart in the source and are kept apart here. Values belong to the compound of their own block, whether it stands above or below them.

Legend:
Turbidity measurement = format: physicochemical; settings: for Turbidity (Relative Value): Table 3, relative to curcumin = 1
Description: The turbidity of various compounds was measured. The method is as follows. […] Curcumin was cloudy while GO-Y199 was clear. The solubility was measured with a turbidimeter (WZB-170 Portable Turbidimeter available from REX). The turbidity of the compound was corrected for concentration.
Subsequently, GO-Y206 and curcumin were adjusted to final concentrations of 1.25 μM and 5.00 μM, respectively, and their turbidities were measured.

[1] = system: colorectal cancer cell line HCT116; assay: Cell growth inhibitory activity, HCT116; format: cell-based
Description: (§1) The cell growth inhibitory activity against a colorectal cancer cell line HCT116 was measured. As an index of cell growth inhibitory activity, a concentration at which cell growth was inhibited by 50% as compared with a control (IC50) was used. The method is as follows. HCT116 was added to a 6-well plate by 5×10^4, compounds having various concentrations were added after 24 hours, and the number of cells was counted after 72 hours of culture. As the control, DMSO was used in an amount equal to the amount added in accordance with the addition concentration of the highest-concentration compound. The number of cells at each concentration relative to the control was expressed as a percentage.
(§2) The method is as described above.
(§3) The cell growth inhibitory activity (IC50) of each of curcumin, GO-Y199, and GO-Y206 against the colorectal cancer cell lines DLD-1 and HCT116 and the gastric cancer cell lines KATO III and H-111-TC was measured. The method is as described above.

[2] = system: malignant pleural mesothelioma cell line MSTO211H; assay: Cell growth inhibitory activity, MSTO211H; format: cell-based; settings: Table 8
Description: as §1, with “percentage. In Table 3, the turbidities of the compounds are also indicated.” for “percentage.”
(§4) GO-Y198, GO-Y199, and GO-Y200 against malignant pleural mesothelioma cell lines NCI-H226 and MSTO211H was measured. The method is as described above. For comparison, the IC50 of cisplatin (CDDP), a cytocidal anticancer agent, is also indicated.

[3] = system: cutaneous T-cell lymphoma cell line HUT78; assay: Cell growth inhibitory activity, HUT78; format: cell-based; settings: Table 10
Description: [The source words this procedure for another cell line and reports this cell line under the same test.] as §1, §2

[4] = system: vascular endothelial cells HUVEC-R resistant to Ki8751; assay: Angiogenesis inhibitory activity, HUVEC-R; format: cell-based; settings: Table 11, number of cells after 72 hours
Description: HUVEC-R was cultured in the presence of each compound using an EGMTM-2 Bullet Kit (Takara Bio Inc., Otsu, Japan), and the number of cells was measured after 72 hours. In addition, IC50 was determined from the results.

[5] = system: cutaneous T-cell lymphoma cell line HH; assay: Cell growth inhibitory activity, HH; format: cell-based; settings: Table 10
Description: [The source words this procedure for another cell line and reports this cell line under the same test.] as §1, §2

[6] = system: malignant pleural mesothelioma cell line NCI-H226; assay: Cell growth inhibitory activity, NCI-H226; format: cell-based; settings: Table 8
Description: as §1, with “percentage. In Table 3, the turbidities of the compounds are also indicated.” for “percentage.”
as §4

[7] = system: gastric cancer cell line SH-10-TC; assay: Cell growth inhibitory activity, SH-10-TC; format: cell-based; settings: SH-10-TC; Table 4; 72 hours
Description: [The source words this procedure for another cell line and reports this cell line under the same test.] as §1, §2

[8] = system: gastric cancer cell line H-111-TC; assay: Cell growth inhibitory activity, H-111-TC; format: cell-based; settings: Table 6
Description: as §1, with “percentage. In Table 3, the turbidities of the compounds are also indicated.” for “percentage.”
as §3, with “above. FIG. 8 indicates the results of cell growth inhibitory activity of these compounds against various cancer cell lines.” for “above.”

[9] = system: pancreatic cancer cell line ASPC-1; assay: Cell growth inhibitory activity, ASPC-1; format: cell-based; settings: Table 7
Description: [The source words this procedure for another cell line and reports this cell line under the same test.] as §1, §2

[10] = system: gastric cancer cell line KATO III; assay: Cell growth inhibitory activity, KATO III; format: cell-based; settings: Table 6, read-out: IC50 (μM) KATO III
Description: as §1, §2, §3

[11] = system: gastric cancer cell line GCIY; assay: Cell growth inhibitory activity, GCIY; format: cell-based; settings: Homo sapiens, GCIY; Table 4; 72 hours
Description: [The source words this procedure for another cell line and reports this cell line under the same test.] as §1, §2

[12] = system: colorectal cancer cell line DLD-1; assay: Cell growth inhibitory activity, DLD-1; format: cell-based
Description: as §1, §2, §3

[13] = system: malignant melanoma cell line G361; assay: Cell growth inhibitory activity, G361; format: cell-based; settings: Table 9
Description: [The source words this procedure for another cell line and reports this cell line under the same test.] as §1, §2

[14] = system: pancreatic cancer cell line Panc-1; assay: Cell growth inhibitory activity, Panc-1; format: cell-based; settings: Table 7
Description: [The source words this procedure for another cell line and reports this cell line under the same test.] as §1, §2

[15] = Table 1, average turbidity corrected for final concentration (1.7-170 μm, per compound)
[16] = Table 1, turbidity/μm relative to curcumin = 1
[17] = Table 3, HCT116, cell count after 72 hours of culture vs DMSO control, read-out: IC50
[18] = Table 2, value in parentheses, relative to curcumin = 1.00

Compound: COc1cc(/C=C/C(=O)CC(=O)/C=C/c2ccc(O)c(OC)c2)ccc1O [curcumin, reference compound]
IC50 [7]: 8.07 µM
IC50 [8]: > 50 µM
IC50 ([9]; Homo sapiens, ASPC1): 18.5 µM
IC50 ([10]; Homo sapiens, KATO III): 11 µM
IC50 ([2]; Homo sapiens, MSTO-211H): 33.7 µM
IC50 [11]: 8.66 µM
IC50 ([12]; Homo sapiens, DLD-1, Table 4, 72 hours, read-out: IC50 DLD-1): 18.7 µM
IC50 ([12]; Homo sapiens, DLD-1, Table 6, read-out: IC50 (μM) DLD-1): 44.8 µM
IC50 ([3]; Homo sapiens, HuT78): 9.01 µM
Turbidity/μm (Turbidity measurement; [15]): 0.29 NTU/μM
Relative Value (turbidity) (Turbidity measurement; [16]): 1
Turbidity (NTU) (Turbidity measurement; Table 2, final conc. 1.25 μM): 4.96 NTU
Turbidity/μm (Turbidity measurement; Table 2, final conc. 1.25 μM): 3.968 NTU/μM
Turbidity (NTU) (Turbidity measurement; Table 2, final conc. 5.0 μM): 29.0 NTU
Turbidity/μm (Turbidity measurement; Table 2, final conc. 5.0 μM): 5.8 NTU/μM
Relative Value (turbidity) (Turbidity measurement; [18]): (1.00)
Turbidity (Relative Value) (Turbidity measurement): 1
appearance of solution (Turbidity measurement; final concentration 50 μM in distilled water or DMEM with 10% fetal bovine serum, from DMSO): cloudy
IC50 ([1]; Homo sapiens, HCT-116, read-out: IC50 HCT-116, Table 4, 72 hours): 16 µM
IC50 ([1]; Homo sapiens, HCT-116, Table 3, HCT116, cell count after 72 hours of culture vs DMSO control, read-out: IC50): 16 µM
IC50 ([1]; Homo sapiens, HCT-116, Table 6, read-out: IC50 (μM) HCT116): 7.08 µM
IC50 ([4]; Endothelial cell): 11.9 µM
IC50 ([13]; Homo sapiens, G-361): 16.8 µM
IC50 ([14]; Homo sapiens, PANC-1): 29.2 µM
IC50 ([5]; T-cell): 18.1 µM
IC50 ([6]; Homo sapiens, NCI-H226): 15.1 µM

Compound: COCOc1cc(C=CC(=O)CC(SCCOCCOCCOCCOCc2cn(C3CC(O)C(O)C(CO)O3)nn2)c2cc(OCOC)cc(OCOC)c2)cc(OCOC)c1 (mixture of isomers) [GO-Y206]
IC50 [8]: 4.67 µM
IC50 [10]: 3.11 µM
IC50 ([12]; Table 6, read-out: IC50 (μM) DLD-1): 1.21 µM
Turbidity/μm (Turbidity measurement; Table 2, final conc. 1.25 μM): 0.144 NTU/μM
Turbidity (NTU) (Turbidity measurement; Table 2, final conc. 5.0 μM): 1.82 NTU
Turbidity/μm (Turbidity measurement; Table 2, final conc. 5.0 μM): 0.364 NTU/μM
Relative Value (turbidity) (Turbidity measurement; [18]): (0.052)
turbidity as percent of curcumin (Turbidity measurement; from averaged NTU/μM): 5%
IC50 ([1]; Table 6, read-out: IC50 (μM) HCT116): 0.91 µM

Compound: COc1cc(/C=C/C(=O)/C=C/c2ccc(O)c(OC)c2)ccc1O [GO-Y022, reference compound]
IC50 [9]: 8.52 µM
IC50 [3]: 4.03 µM
Turbidity/μm (Turbidity measurement; [15]): 0.014 NTU/μM
Relative Value (turbidity) (Turbidity measurement; [16]): 0.048
Turbidity (Relative Value) (Turbidity measurement): 0.048
Ave Turbidity (NTU) (Turbidity measurement; final conc. 8.3 μm in DDW): 0.12 ± 0.0094 NTU
IC50 [1, 17]: 2.02 µM
IC50 [4]: 4.7 µM
IC50 [13]: 3.1 µM
IC50 [14]: 6.67 µM
IC50 [5]: 9.16 µM

Compound: COCOc1cc(/C=C/C(=O)CC(SCC(=O)OC)c2cc(OCOC)cc(OCOC)c2)cc(OCOC)c1 (racemic) [GO-Y136, reference compound]
Turbidity/μm (Turbidity measurement; [15]): 0.024 NTU/μM
Relative Value (turbidity) (Turbidity measurement; [16]): 0.083
Turbidity (Relative Value) (Turbidity measurement): 0.083
Ave Turbidity (NTU) (Turbidity measurement; final conc. 1.7 μm in DDW): 0.04 ± 0.0082 NTU
IC50 [1, 17]: 0.89 µM

Compound: COCOc1cc(/C=C/C(=O)/C=C/c2cc(OCOC)cc(OCOC)c2)cc(OCOC)c1 [GO-Y030, (1E,4E)-1,5-bis-[3,5-bis(methoxymethoxy)phenyl]pentadiene-3-one, reference compound]
Turbidity/μm (Turbidity measurement; [15]): 2.68 NTU/μM
Ave Turbidity (NTU) (Turbidity measurement; final conc. 17 μm in DDW): 45.6 ± 0.21 NTU
Turbidity (NTU) (Turbidity measurement; individual measurements, final conc. 170 μm, DMSO stock diluted in 30 mL DDW): over limit

Compound: COCOc1cc(C=CC(=O)CC(SCCOCCOCCOCCOCc2cn(CCCOC(=O)CCCCC3SCC4NC(=O)NC43)nn2)c2cc(OCOC)cc(OCOC)c2)cc(OCOC)c1 (mixture of isomers) [GO-Y195]
IC50 [1, 17]: 1.8 µM

The next lines start with results.

Turbidity/μm (Turbidity measurement; [15]): 0 NTU/μM
Relative Value (turbidity) (Turbidity measurement; [16]): 0
Turbidity (Relative Value) (Turbidity measurement): 0
Ave Turbidity (NTU) (Turbidity measurement; final conc. 8.3 μm in DDW): 0 NTU
IC50 [1, 17]: 0.67 µM
Compound: COCOc1cc(C=CC(=O)CC(SCCOCCOCCOCCOCc2cn(C3OC(CO)C(O)C(O)C3O)nn2)c2cc(OCOC)cc(OCOC)c2)cc(OCOC)c1 (mixture of isomers) [GO-Y196]

IC50 [2]: 0.9 µM
IC50 [3]: 0.51 µM
Turbidity/μm (Turbidity measurement; [15]): 0 NTU/μM
Relative Value (turbidity) (Turbidity measurement; [16]): 0
Turbidity (Relative Value) (Turbidity measurement): 0
Ave Turbidity (NTU) (Turbidity measurement; final conc. 8.3 μm in DDW): 0 NTU
IC50 [1, 17]: 0.44 µM
IC50 [5]: 1.15 µM
IC50 [6]: 4.2 µM
Compound: COCOc1cc(/C=C/C(=O)CC(SCCOCCOCCOCCOCc2cn([C@H]3O[C@H](CO)[C@@H](O)[C@H](O)[C@@H]3O)nn2)c2cc(OCOC)cc(OCOC)c2)cc(OCOC)c1 (stereo partly shown) [GO-Y198]
IC50 [4]: 1.08 µM

IC50 [9]: 1.33 µM
IC50 [2]: 4.5 µM
IC50 [3]: 0.91 µM
Turbidity/μm (Turbidity measurement; [15]): 0 NTU/μM
Relative Value (turbidity) (Turbidity measurement; [16]): 0
Turbidity (Relative Value) (Turbidity measurement): 0
Ave Turbidity (NTU) (Turbidity measurement; final conc. 8.3 μm in DDW): 0 NTU
IC50 [1, 17]: 0.42 µM
IC50 [14]: 0.91 µM
IC50 [5]: 1.31 µM
IC50 [6]: 4.7 µM
Compound: COCOc1cc(/C=C/C(=O)CC(SCCOCCOCCOCCOCc2cn([C@@H]3O[C@H](CO)[C@@H](O[C@H]4O[C@H](CO)[C@@H](O)[C@H](O)[C@H]4O)[C@H](O)[C@H]3O)nn2)c2cc(OCOC)cc(OCOC)c2)cc(OCOC)c1 (stereo partly shown) [GO-Y200]
IC50 [4]: 1.3 µM

IC50 [1, 17]: 0.5 µM
Compound: COCOc1cc(/C=C/C(=O)CC(SCCOCCOCCOCCOCc2cn(CCCO)nn2)c2cc(OCOC)cc(OCOC)c2)cc(OCOC)c1 (racemic) [GO-Y194]

IC50 [2]: 3.9 µM
IC50 [3]: 0.81 µM
Turbidity/μm (Turbidity measurement; [15]): 0 NTU/μM
Relative Value (turbidity) (Turbidity measurement; [16]): 0
Turbidity (Relative Value) (Turbidity measurement): 0
Ave Turbidity (NTU) (Turbidity measurement; final conc. 8.3 μm in DDW): 0 NTU
IC50 [1, 17]: 0.7 µM
IC50 [13]: 1.1 µM
IC50 [5]: 1.11 µM
IC50 [6]: 4 µM
Compound: COCOc1cc(/C=C/C(=O)CC(SCCOCCOCCOCCOCc2cn([C@H]3O[C@@H](CO)[C@H](O)[C@@H](O)[C@@H]3O)nn2)c2cc(OCOC)cc(OCOC)c2)cc(OCOC)c1 (stereo partly shown) [GO-Y197]
IC50 [4]: 0.96 µM
